Read-outs that look alike come from different tables or passages of the source.
Columns and labels:
[1] = Pharmacokinetics in patients after multiple administrations; assay type: in vivo, human; settings: for AUC(0-inf) / AUC(0-t) / Cmax / Tmax / Vd/F / half-life / MRT last: human, serum, oral; for MRT last: read-out: MRT0→t
Description: Additional File 6: Table S4. Mean pharmacokinetic parameters of patients after multiple administrations in each dosage group

basophil activation = assay: Inhibition of basophil activation in vitro; assay type: cell-based; settings: at the serum concentration produced by the 80 mg dose level
[2] = system: relapsed or refractory B-cell malignancies; assay: Phase 1 dose escalation: efficacy (ORR, DCR, PFS) in patients; assay type: in vivo, human
Experimental: Patients ≥ 18 years old with refractory or relapsed B-cell malignancies were enrolled from November, 2017 to completion of the trial in November, 2019. Inclusion and exclusion criteria are listed in Additional file 2 and baseline patient characteristics in Additional file 3: Table S2.
During dose escalation, patients received YY-20394 tablets q.d. at dosages of 20, 40, 80, 140 or 200 mg. The maximum tolerated dose (MTD), dose escalation phase and dose-limiting toxicity (DLT) as well as hematological toxicity classifications are described in Additional file 4. The primary endpoints were safety, tolerability and the MTD of YY-20394. Secondary endpoints were PK parameters and efficacy. Response criteria followed the revised International Research Working Group (IRWG) for non-Hodgkin lymphomas (NHL), and the International Working Group on Chronic Lymphocytic Leukemia (IWCLL) criteria for CLL [8]. Efficacy determinations were the objective response rate (ORR), disease control rate (DCR), complete remission (CR), partial remission (PR), stable disease (SD), progressive disease (PD) and progression-free survival (PFS).

[3] = Pharmacokinetics in patients after a single dose; assay type: in vivo, human; settings: for AUC(0-inf) / AUC(0-t) / Cmax / Tmax / Vd/F / half-life / MRT last / MRT inf: human, serum, oral; for AUC(0-inf) / AUC(0-t) / Cmax / Tmax / Vd/F / half-life / MRT last / MRT inf / CL/F: single dose; for MRT last: read-out: MRT0→t; for MRT inf: read-out: MRT0→∞
Description: Additional File 5: Table S3. Mean pharmacokinetic parameters of patients after a single dose in each dosage group

PI3Kδ = PI3Kδ (Homo sapiens, UniProt O00329); assay: PI3Kδ kinase inhibition; assay type: biochemical
[4] = 10 FL patients, 9/10, 95% CI 71.4, 100.0
[5] = number of patients of 25 evaluable

Sequence of PI3Kδ (O00329 whole entry): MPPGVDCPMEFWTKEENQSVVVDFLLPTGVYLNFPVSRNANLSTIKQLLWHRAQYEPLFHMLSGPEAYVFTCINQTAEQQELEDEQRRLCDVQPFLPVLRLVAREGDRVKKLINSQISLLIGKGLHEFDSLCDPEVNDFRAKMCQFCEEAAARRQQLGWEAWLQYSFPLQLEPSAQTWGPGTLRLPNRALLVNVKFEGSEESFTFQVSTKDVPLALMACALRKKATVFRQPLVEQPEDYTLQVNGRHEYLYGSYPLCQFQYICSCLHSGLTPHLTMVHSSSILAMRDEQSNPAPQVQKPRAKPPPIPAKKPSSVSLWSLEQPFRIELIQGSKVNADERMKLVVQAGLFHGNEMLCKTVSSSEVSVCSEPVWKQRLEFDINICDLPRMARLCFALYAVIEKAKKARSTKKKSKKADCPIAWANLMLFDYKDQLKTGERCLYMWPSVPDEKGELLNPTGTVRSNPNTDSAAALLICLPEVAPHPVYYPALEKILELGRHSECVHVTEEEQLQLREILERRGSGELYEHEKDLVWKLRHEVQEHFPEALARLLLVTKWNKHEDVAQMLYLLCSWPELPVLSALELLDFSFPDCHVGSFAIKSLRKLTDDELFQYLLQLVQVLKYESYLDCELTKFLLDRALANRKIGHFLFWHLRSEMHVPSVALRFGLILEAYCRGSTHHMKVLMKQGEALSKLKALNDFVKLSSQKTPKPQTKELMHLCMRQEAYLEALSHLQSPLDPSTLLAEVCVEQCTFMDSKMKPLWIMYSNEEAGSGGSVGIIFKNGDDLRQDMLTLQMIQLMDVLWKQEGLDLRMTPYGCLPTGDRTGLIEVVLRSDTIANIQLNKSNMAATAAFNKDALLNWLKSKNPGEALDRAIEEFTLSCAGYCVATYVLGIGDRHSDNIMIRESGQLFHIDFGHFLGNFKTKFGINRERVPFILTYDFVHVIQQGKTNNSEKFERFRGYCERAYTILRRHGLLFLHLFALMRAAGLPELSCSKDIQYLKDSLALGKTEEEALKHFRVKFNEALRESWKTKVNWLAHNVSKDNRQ
Sequence of PI3Kδ (P27986 whole entry partner): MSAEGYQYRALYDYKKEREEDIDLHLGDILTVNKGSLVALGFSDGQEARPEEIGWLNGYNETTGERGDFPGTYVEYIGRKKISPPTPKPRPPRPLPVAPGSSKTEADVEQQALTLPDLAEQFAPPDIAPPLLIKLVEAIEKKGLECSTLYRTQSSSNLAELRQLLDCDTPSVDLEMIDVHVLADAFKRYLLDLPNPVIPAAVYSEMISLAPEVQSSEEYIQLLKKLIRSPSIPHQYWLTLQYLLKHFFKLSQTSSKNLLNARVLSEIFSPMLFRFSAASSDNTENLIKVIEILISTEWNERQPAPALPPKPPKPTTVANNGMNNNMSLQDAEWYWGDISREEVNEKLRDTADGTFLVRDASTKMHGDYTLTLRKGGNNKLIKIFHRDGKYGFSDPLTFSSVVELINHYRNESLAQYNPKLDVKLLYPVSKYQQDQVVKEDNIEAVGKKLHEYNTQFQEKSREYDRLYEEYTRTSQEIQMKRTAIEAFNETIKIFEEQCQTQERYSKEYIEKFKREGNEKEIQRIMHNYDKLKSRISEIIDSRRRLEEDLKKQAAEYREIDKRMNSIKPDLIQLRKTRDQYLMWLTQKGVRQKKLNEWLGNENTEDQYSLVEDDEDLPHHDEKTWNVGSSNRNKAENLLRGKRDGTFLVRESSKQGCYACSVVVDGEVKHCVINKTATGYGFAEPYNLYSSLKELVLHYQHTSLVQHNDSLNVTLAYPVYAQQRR

COc1ncc(-c2nc(N3CCOCC3)nc3c(CN4CCC(C(C)(C)O)CC4)cc(F)cc23)cc1NS(C)(=O)=O [YY-20394, N-[5-[6-fluoro-8-[[4-(1-hydroxy-1-methylethyl)-1-piperidinyl]methyl]-2-(4-morpholinyl)-4-quinazolinyl]-2-methoxy-3-pyridinyl]-methanesulfonamide]
Ratio of IC50 γ/δ (PI3Kγ): 1125 | kinase inhibition profile more PI3Kδ-selective (PI3Kγ; PI3Kδ versus PI3Kγ, compared with idelalisib): ~2 orders of magnitude | CL/F ([1]; 20 mg, mean): 16.3 L/h | Cmin ([1]; 20 mg, mean): 28.7 ng/mL | Css ([1]; 20 mg, mean): 51.0 ng/mL | CL/F ([1]; 40 mg, mean ± SD): 13.4 ± 3.7 L/h | Cmin ([1]; 40 mg, mean ± SD): 73.0 ± 32.5 ng/mL | Css ([1]; 40 mg, mean ± SD): 132.7 ± 43.0 ng/mL | CL/F ([1]; 80 mg, mean ± SD): 11.1 ± 3.1 L/h | Cmin ([1]; 80 mg, mean ± SD): 180.5 ± 74.5 ng/mL | Css ([1]; 80 mg, mean ± SD): 325.7 ± 97.8 ng/mL | CL/F ([1]; 140 mg, mean ± SD): 9.1 ± 0.6 L/h | Cmin ([1]; 140 mg, mean ± SD): 359.6 ± 31.5 ng/mL | Css ([1]; 140 mg, mean ± SD): 642.3 ± 40.2 ng/mL | CL/F ([1]; 200 mg, mean ± SD): 9.4 ± 2.2 L/h | Cmin ([1]; 200 mg, mean ± SD): 472.4 ± 71.6 ng/mL | Css ([1]; 200 mg, mean ± SD): 918.6 ± 201.7 ng/mL | exposure (Cmax, AUC0-t, AUC0-∞) versus dose ([1]; 20 to 200 mg): increased with dosage | AUC(0-inf) ([1]; 20 mg, mean): 4010 ng·h/mL | AUC(0-t) ([1]; 20 mg, mean): 1220 ng·h/mL | Cmax ([1]; 20 mg, mean): 94.6 ng/mL | Tmax ([1]; 20 mg, mean): 4 h | Vd/F ([1]; 20 mg, mean): 930 L | half-life ([1]; 20 mg, mean): 39.5 h | MRT last ([1]; 20 mg, mean): 65.7 h | AUC(0-inf) ([1]; 40 mg, mean ± SD): 5500 ng·h/mL | AUC(0-t) ([1]; 40 mg, mean ± SD): 3190 ng·h/mL | Cmax ([1]; 40 mg, mean ± SD): 208 ± 58.3 ng/mL | Tmax ([1]; 40 mg, mean ± SD): 2.7 ± 1.2 h | Vd/F ([1]; 40 mg, mean ± SD): 392 ± 228 L | half-life ([1]; 40 mg, mean ± SD): 19.7 ± 7.2 h | MRT last ([1]; 40 mg, mean ± SD): 28.1 ± 10.5 h | AUC(0-inf) ([1]; 80 mg, mean ± SD): 16600 ng·h/mL | AUC(0-t) ([1]; 80 mg, mean ± SD): 7820 ng·h/mL | Cmax ([1]; 80 mg, mean ± SD): 529 ± 170 ng/mL | Tmax ([1]; 80 mg, mean ± SD): 2.4 ± 1.7 h | Vd/F ([1]; 80 mg, mean ± SD): 388 ± 392 L | half-life ([1]; 80 mg, mean ± SD): 25.3 ± 25.5 h | MRT last ([1]; 80 mg, mean ± SD): 36.4 ± 37.6 h | AUC(0-inf) ([1]; 140 mg, mean ± SD): 24300 ng·h/mL | AUC(0-t) ([1]; 140 mg, mean ± SD): 15400 ng·h/mL | Cmax ([1]; 140 mg, mean ± SD): 1190 ng/mL | Tmax ([1]; 140 mg, mean ± SD): 3.7 ± 2.5 h | Vd/F ([1]; 140 mg, mean ± SD): 215 ± 10 L | half-life ([1]; 140 mg, mean ± SD): 16.4 ± 0.3 h | MRT last ([1]; 140 mg, mean ± SD): 23.4 ± 1.5 h | AUC(0-inf) ([1]; 200 mg, mean ± SD): 36300 ng·h/mL | AUC(0-t) ([1]; 200 mg, mean ± SD): 22000 ng·h/mL | Cmax ([1]; 200 mg, mean ± SD): 1610 ng/mL | Tmax ([1]; 200 mg, mean ± SD): 2 ± 1.5 h | Vd/F ([1]; 200 mg, mean ± SD): 239 ± 110 L | half-life ([1]; 200 mg, mean ± SD): 17.5 ± 6.3 h | MRT last ([1]; 200 mg, mean ± SD): 25.3 ± 8.8 h | inhibition of basophil activation in vitro (basophil activation): 90% | longest treatment duration ([2]; 40 mg, CLL/SLL patient): 36 months | median PFS time, follicular lymphoma ([2]; 10 FL patients): 300 days | DCR, follicular lymphoma [2, 4]: 90% | ORR, follicular lymphoma [2, 4]: 90% | overall ORR ([2]; 25 evaluable patients, 16/25, 95% CI 45.2, 82.8%): 64.0% | disease control rate (DCR) ([2]; 25 evaluable patients, 18/25, 95% CI 54.4, 89.6%): 72.0% | median PFS time ([2]; all evaluable patients combined): 255 days | CR, follicular lymphoma ([2]; number of FL patients, 80 mg): 3 | PD, follicular lymphoma ([2]; number of FL patients, 200 mg): 1 | PR, follicular lymphoma ([2]; number of FL patients, 1/40 mg and 5/80 mg): 6 | complete remission (CR) [2, 5]: 5 | partial remission (PR) [2, 5]: 11 | progressive disease (PD) [2, 5]: 7 | durable response ([2]; one PR patient with CLL/SLL, 40 mg q.d.): around 36 months | AUC(0-inf) ([3]; 20 mg, mean): 1390 ng·h/mL | AUC(0-t) ([3]; 20 mg, mean): 1140 ng·h/mL | Cmax ([3]; 20 mg, mean): 39.3 ng/mL | Tmax ([3]; 20 mg, mean): 4 h | Vd/F ([3]; 20 mg, mean): 576 L | half-life ([3]; 20 mg, mean): 27.8 h | MRT last ([3]; 20 mg, mean): 25 h | MRT inf ([3]; 20 mg, mean): 40.7 h | AUC(0-inf) ([3]; 40 mg, mean ± SD): 2410 ng·h/mL | AUC(0-t) ([3]; 40 mg, mean ± SD): 2270 ng·h/mL | Cmax ([3]; 40 mg, mean ± SD): 148 ± 24.5 ng/mL | Tmax ([3]; 40 mg, mean ± SD): 1.8 ± 0.3 h | Vd/F ([3]; 40 mg, mean ± SD): 445 ± 100 L | half-life ([3]; 40 mg, mean ± SD): 17.8 ± 1.4 h | MRT last ([3]; 40 mg, mean ± SD): 18 ± 0.9 h | MRT inf ([3]; 40 mg, mean ± SD): 22.4 ± 1.3 h | AUC(0-inf) ([3]; 80 mg, mean ± SD): 6880 ng·h/mL | AUC(0-t) ([3]; 80 mg, mean ± SD): 6510 ng·h/mL | Cmax ([3]; 80 mg, mean ± SD): 347 ± 90.2 ng/mL | Tmax ([3]; 80 mg, mean ± SD): 2.7 ± 1.5 h | Vd/F ([3]; 80 mg, mean ± SD): 302 ± 70.4 L | half-life ([3]; 80 mg, mean ± SD): 17.2 ± 1.8 h | MRT last ([3]; 80 mg, mean ± SD): 18.6 ± 1.9 h | MRT inf ([3]; 80 mg, mean ± SD): 22.7 ± 3.1 h | AUC(0-inf) ([3]; 140 mg, mean ± SD): 15300 ng·h/mL | AUC(0-t) ([3]; 140 mg, mean ± SD): 14200 ng·h/mL | Cmax ([3]; 140 mg, mean ± SD): 854 ± 289 ng/mL | Tmax ([3]; 140 mg, mean ± SD): 2 ± 1.7 h | Vd/F ([3]; 140 mg, mean ± SD): 236 ± 37.6 L | half-life ([3]; 140 mg, mean ± SD): 18 ± 3.6 h | MRT last ([3]; 140 mg, mean ± SD): 19.1 ± 3.6 h | MRT inf ([3]; 140 mg, mean ± SD): 24.8 ± 6.5 h | AUC(0-inf) ([3]; 200 mg, mean ± SD): 15000 ng·h/mL | AUC(0-t) ([3]; 200 mg, mean ± SD): 13100 ng·h/mL | Cmax ([3]; 200 mg, mean ± SD): 641 ± 378 ng/mL | Tmax ([3]; 200 mg, mean ± SD): 9.4 ± 10.1 h | Vd/F ([3]; 200 mg, mean ± SD): 318 ± 92.2 L | half-life ([3]; 200 mg, mean ± SD): 16 ± 1.9 h | MRT last ([3]; 200 mg, mean ± SD): 21.5 ± 6.4 h | MRT inf ([3]; 200 mg, mean ± SD): 21.8 ± 4 h | in vivo exposure (Cmax, AUC0-t, AUC0-∞) versus dose ([3]; single administrations, 20 to 140 mg): increased proportionally in a dose-dependent manner | CL/F ([3]; 20 mg, mean): 14.4 L/h | CL/F ([3]; 40 mg, mean ± SD): 17.6 ± 4.8 L/h | CL/F ([3]; 80 mg, mean ± SD): 12.2 ± 2.6 L/h | CL/F ([3]; 140 mg, mean ± SD): 9.2 ± 0.5 L/h | CL/F ([3]; 200 mg, mean ± SD): 13.6 ± 2.4 L/h | IC50 (PI3Kδ): 4.6 nM
